Key:
NSD2 = experiment: Western blot of NSD2 knockdown by inducible shRNA in ALL cell lines; format: cell-based, human; details: induced with doxycycline, FIG. 13
Procedure: To test the hypothesis that the NSD2 E1099K mutation is important in the pathogenesis of ALL cells, several shRNA knockdown experiments were done. In these experiments, NSD2 shRNA sequences were cloned into pLKO-Tet-On vectors with the H1 promoter or U6 promoter. shRNA lentivitus was generated as described above. Cell lines were infected and selected by puromycin. All tet inducible shRNA cell lines are cultured using tet system approved FBS (Clontech, Cat#: 631106, Mountain View, Calif.). NSD2 Tet-inducible cellular proliferation assay was set up as the following. Cultured cells were placed at 0.2 million cells/ml in 10 ml and split into two wells (5 ml/well) in a 6-well plate. Doxycycline (100 ng/ml final) was added to one well at assay initiation and every 2-3 days to induce NSD2 Tet-inducible shRNAs. On days 4 and 8 the assayed cells (with and without doxycycline) were counted for viability and cell concentration (10^6 cell/ml) with Vi-cell. Assayed cells were then reset to 0.2×10^6 cells/ml in 5 ml every 4 days to keep the cells proliferating in log-phase. On day 8, 1 million cells were collected from assayed cells for Western blot analysis. The shRNA sequences used in the experiments were the following, and are used with this nomenclature in FIG. 13. […]

SEM cells = experiment: NSD2 Tet-inducible cellular proliferation assay, SEM cells; format: cell-based; details: SEM cells (E1099K), shRNA induced vs U6-empty control, FIG. 14
Procedure: (§1) To test the hypothesis that the NSD2 E1099K mutation is important in the pathogenesis of ALL cells, several shRNA knockdown experiments were done. In these experiments, NSD2 shRNA sequences were cloned into pLKO-Tet-On vectors with the H1 promoter or U6 promoter. shRNA lentivitus was generated as described above. Cell lines were infected and selected by puromycin. All tet inducible shRNA cell lines are cultured using tet system approved FBS (Clontech, Cat#: 631106, Mountain View, Calif.). NSD2 Tet-inducible cellular proliferation assay was set up as the following. Cultured cells were placed at 0.2 million cells/ml in 10 ml and split into two wells (5 ml/well) in a 6-well plate. Doxycycline (100 ng/ml final) was added to one well at assay initiation and every 2-3 days to induce NSD2 Tet-inducible shRNAs. On days 4 and 8 the assayed cells (with and without doxycycline) were counted for viability and cell concentration (10^6 cell/ml) with Vi-cell. Assayed cells were then reset to 0.2×10^6 cells/ml in 5 ml every 4 days to keep the cells proliferating in log-phase. On day 8, 1 million cells were collected from assayed cells for Western blot analysis. The shRNA sequences used in the experiments were the following, and are used with this nomenclature in FIG. 13.
(§2) The shRNAs described above were then used in a cell proliferation assay. […]

JVM-3 line = experiment: NSD2 Tet-inducible cellular proliferation assay, JVM-3 cells; format: cell-based; details: JVM-3 line (no E1099K), shRNA induced vs U6-empty control, FIG. 14
Procedure: as §1, §2

[1] = test system: H3K36me2 and H3K27me3 methylation; experiment: Western blot of histone H3 methylation status after shRNA knockdown in SEM cells; format: cell-based; details: NSD2 E1099K knocked down, FIG. 16
Procedure: NSD2 shRNA sequences were cloned into pLKO-Tet-On vectors with H1 promoter or U6 promoter. shRNA lentivitus was generated as described above. Cell lines were infected and selected by puromycin. All tet inducible shRNA cell lines are cultured using tet system approved FBS (Clontech, Cat#: 631106). The NSD2 Tet-inducible cellular proliferation assay was set up as follows. Cultured cells were placed at 0.2 million cells/ml in 10 ml and split into two wells (5 ml/well) in 6-well plate. Doxycycline (100 ng/ml final) was added to one well at assay initiation and every 2-3 days to induce NSD2 Tet-inducible shRNAs. On days 4 and 8 the assayed cells (with and without doxycycline) were counted for viability and cell concentration (10^6 cell/ml) with Vi-cell. Assayed cells were then reset to 0.2×10^6 cells/ml in 5 ml every 4 days to keep the cells proliferating in log-phase. On days 8, 1 million cells were collected from assayed cells for Western blot analysis. The shRNA sequences used in the experiments were the V17 (SEQ ID NO. 9) and 9A5 (SEQ ID NO. 10) as described in Example 11 above.
For example, this is clearly seen in SEM cells wherein NSD2 E1099K is knocked down with […]. The amount of NSD2 present is very low, as is H3K36me2 methylation.

KMS-11 cells = experiment: KMS11-luciferase intravenous multiple myeloma mouse model with doxycycline-inducible NSD2 shRNA; format: in vivo, SCID-beige mice
Procedure: Six- to eight-week-old female SCID-beige mice (Vital River, Beijing, China) were injected intravenously with 10^7 KMS-11 cells stably transduced with inducible NSD2 shRNA (sh4: 5′ ACATGCTCACTATAGACAA′3 (SEQ ID NO:8)) and tagged with luciferase. The injection of KMS11 cells was in 100 μl PBS with 50% Matrigel, with 8-10 mice per group/treatment. To induce the shRNA expression, mice were fed with water containing 5% sucrose and 0.2 mg/ml doxycycline. Images were taken weekly (with 200 μl/mouse D-luciferase intraperitoneal injection), and pathology such as paralysis was monitored.

Substance	expression of NSD2 and MMSET1 (NSD2)	reduction of cell proliferation (SEM cells)	reduction of cell proliferation (JVM-3 line)	H3K27me3 methylation [1]	amount of NSD2 and H3K36me2 methylation [1]	tumor growth (KMS-11 cells; KMS11-luciferase with inducible NSD2 shRNA, induction with doxycycline for 29 days, FIG. 3A)	luciferase activity of tumors (KMS-11 cells; time course with vs without doxycycline induction, FIG. 3B)
9A5 shRNA: NSD2 shRNA 5' GAATAAGCCTTACGGGAAA 3' (SEQ ID NO. 10), targets NSD2 isoforms containing the SET domain	capable of reducing expression of NSD2 and MMSET1	about 60%	about 15%	robust H3K27me3 methylation	very low		
sh4: inducible NSD2 shRNA, 5' ACATGCTCACTATAGACAA 3' (SEQ ID NO:8)						greatly inhibited tumor growth	greatly reduced

Reference: US20150354006A1, “MARKERS FOR ACUTE LYMPHOBLASTIC LEUKEMIA” (Novartis AG, priority 2012, published 2015)
